{"source": "paper PMC3078958", "about": "(Archives of biochemistry and biophysics, 2011)", "data": [{"target": "T1, CsOxOx (Ceriporiopsis subvermispora bicupin oxalate oxidase, isoform-G) (Gelatoporia subvermispora, UniProt Q5ZH56)", "T1 sequence (Q5ZH56 21-461)": "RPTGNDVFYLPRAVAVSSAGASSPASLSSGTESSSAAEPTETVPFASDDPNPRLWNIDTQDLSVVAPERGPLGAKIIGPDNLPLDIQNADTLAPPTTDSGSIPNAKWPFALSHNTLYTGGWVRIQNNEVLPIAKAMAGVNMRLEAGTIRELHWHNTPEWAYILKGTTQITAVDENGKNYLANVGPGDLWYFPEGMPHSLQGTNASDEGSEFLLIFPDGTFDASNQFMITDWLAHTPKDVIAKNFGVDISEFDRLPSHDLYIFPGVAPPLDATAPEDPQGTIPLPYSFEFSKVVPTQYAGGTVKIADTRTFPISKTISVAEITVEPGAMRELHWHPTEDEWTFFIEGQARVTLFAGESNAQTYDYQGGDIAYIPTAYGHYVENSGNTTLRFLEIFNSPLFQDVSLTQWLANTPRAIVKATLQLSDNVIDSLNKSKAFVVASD", "assay": "continuous coupled HRP/ABTS assay of H2O2 production, […] nm", "format": "biochemical", "units": {"Ki": "mM"}, "values": [{"smiles": "CC(=O)O", "note": "[acetate]", "Ki": "3.9 ± 0.6"}, {"smiles": "O=C(O)CO", "note": "[glycolate]", "Ki": "28 ± 5"}, {"smiles": "O=CC(=O)O", "note": "[glyoxylate]", "Ki": "15 ± 3"}, {"smiles": "O=C(O)C[C@H](O)C(=O)O", "note": "[malate]", "Ki": "52 ± 6"}, {"smiles": "O=C(O)CC(=O)O", "note": "[malonate]", "Ki": "3 ± 0.3"}, {"smiles": "CC(=O)C(=O)O", "note": "[pyruvate]", "Ki": "17 ± 3"}]}]}
